Assay results published in patent US8729131B2, “Agomelatine hydrochloride hydrate and preparation thereof” (Les Laboratoires Servier, priority 2010, dated 2014).
Where a name gives a salt, the structure may show the parent alone. Blank lines part the entries; values can stand above or below the molecule they belong to.

Tests used:
Assay type in all cases: physicochemical
[1] = Stability test: product placed in an incubator at 40° C. for 30 days, determined with HPLC; details: 40° C. incubator
Protocol: Chromatographic conditions: C18 column; mobile phase: 10 mmol/L phosphate buffer (adjusted to pH 7.0 with NaOH): acetonitrile=2:7 (v/v); column temperature: 40° C.; detection wavelength: 220 nm; internal standard method was used on the products of Examples 1 and 2.
Solutions of the products at 1 mg/mL were prepared with the mobile phase. 10 μL of each solution was injected into the liquid chromatograph system and chromatograms were recorded. The results of the purity are shown in Examples 1 and 2.
Some of the product of Example 1 was placed in an incubator at 40° C. for 30 days to determine its stability with HPLC.

[2] = Water solubility, HPLC external standard method
Protocol: Using external standard method, the product of Example 1 was tested with HPLC, compared with agomelatine crystalline form II.

[3] = Stability test (Chinese Pharmacopoeia): affecting factors test, open container for 10 days; details: open container 10 days; for Water: initial 6.10%; for C1: initial 11.86%; for purity: initial purity 99.72%
Protocol: (§1) The method for stability test as described in Chinese Pharmacopoeia was used in this test. • 1) Affecting factors test (in open container for 10 days): high temperature (60° C.), photostability under strong light (45001×), high humidity (92.5% RH at 25° C.) • 2) Accelerated test (in closed container for 6 months): at 40° C., humidity: 75% RH • 3) Long-term test (in closed container for 9 months): at 25° C., humidity: 60% RH

[4] = Stability test (Chinese Pharmacopoeia): accelerated test, closed container for 6 months
Protocol: as §1

[5] = Stability test (Chinese Pharmacopoeia): long-term test, closed container for 9 months
Protocol: as §1

[6] = High humidity (92.5% RH at 25° C.)

stability with HPLC ([1]; Day 0): 99.6%
stability with HPLC ([1]; Day 5): 99.5%
stability with HPLC ([1]; Day 10): 99.5%
stability with HPLC ([1]; Day 30): 99.5%
Agomelatine content ([2]; In 0.1 N HCl, hydrochloride hydrate): 0.40 mg/mL
Agomelatine content ([2]; In pH 7.0 buffer, hydrochloride hydrate): 0.30 mg/mL
Agomelatine content ([2]; In water, hydrochloride hydrate): 0.30 mg/mL
solubility compared with agomelatine per se (in words) ([2]; in water, in 0.1N HCl, or in pH 7.0 buffer): better solubility
Water [3, 6]: 6.03%
C1 [3, 6]: 11.63%
purity [3, 6]: 99.73%
Water ([3]; High temperature (60° C.)): 1.00%
C1 ([3]; High temperature (60° C.)): 1.75%
purity ([3]; High temperature (60° C.)): 99.51%
Water ([3]; Strong light (45001×)): 5.95%
C1 ([3]; Strong light (45001×)): 11.48%
purity ([3]; Strong light (45001×)): 99.67%
Water ([4]; 40° C., 75% RH, closed container 6 months, initial 6.10%): 6.02%
C1 ([4]; 40° C., 75% RH, closed container 6 months, initial 11.86%): 11.65%
purity ([4]; 40° C., 75% RH, closed container 6 months, initial purity 99.72%): 99.64%
stability (in words) ([4]; accelerated test): stable
Water ([5]; 25° C., 60% RH, closed container 9 months, initial 6.10%): 6.00%
C1 ([5]; 25° C., 60% RH, closed container 9 months, initial 11.86%): 11.53%
purity ([5]; 25° C., 60% RH, closed container 9 months, initial purity 99.72%): 99.74%
stability (in words) ([5]; long-term test): stable
SMILES: COc1ccc2cccc(CCNC(C)=O)c2c1 [AG · HCl · H2O, agomelatine hydrochloride hydrate]

Agomelatine content ([2]; In 0.1 N HCl): 0.30 mg/mL
Agomelatine content ([2]; In pH 7.0 buffer): 0.25 mg/mL
Agomelatine content ([2]; In water): 0.26 mg/mL
SMILES: COc1ccc2cccc(CCNC(C)=O)c2c1 [AG crystalline form II, N-[2-(7-methoxy-1-naphthyl)pethyl]-acetamide, reference compound]
